Reference: ChEMBL document CHEMBL5465560, “Selectivity Literature for EUbOPEN Chemogenomic Library” (2024)

Experiments:
[1] = target: Protein kinase C eta type (Homo sapiens) (UniProt P24723); experiment: Selectivity interaction (KinomeScan (DiscoverX)) EUB0000229b PRKCH; details: at 10 µM
[2] = system: Mast/stem cell growth factor receptor Kit (Homo sapiens), P10721 [D816H]; experiment: (§1) Selectivity interaction (KinomeScan (DiscoverX)) EUB0000595a KIT; details: at 10 µM
[3] = system: Mast/stem cell growth factor receptor Kit (Homo sapiens), P10721 [D816V]; experiment: as §1; details: at 10 µM
[4] = system: Mast/stem cell growth factor receptor Kit (Homo sapiens), P10721 [L576P]; experiment: as §1; details: at 10 µM
[5] = system: Mast/stem cell growth factor receptor Kit (Homo sapiens), P10721 [V559D,T670I]; experiment: as §1; details: at 10 µM
[6] = system: Mast/stem cell growth factor receptor Kit (Homo sapiens), P10721 [V559D,V654A]; experiment: as §1; details: at 10 µM
[7] = system: Mast/stem cell growth factor receptor Kit (Homo sapiens), P10721 [V559D]; experiment: as §1; details: at 10 µM
[8] = target: T1, Bone morphogenetic protein receptor type-2 (Homo sapiens) (UniProt Q13873); details: at 10 µM
T1 sequence (whole entry): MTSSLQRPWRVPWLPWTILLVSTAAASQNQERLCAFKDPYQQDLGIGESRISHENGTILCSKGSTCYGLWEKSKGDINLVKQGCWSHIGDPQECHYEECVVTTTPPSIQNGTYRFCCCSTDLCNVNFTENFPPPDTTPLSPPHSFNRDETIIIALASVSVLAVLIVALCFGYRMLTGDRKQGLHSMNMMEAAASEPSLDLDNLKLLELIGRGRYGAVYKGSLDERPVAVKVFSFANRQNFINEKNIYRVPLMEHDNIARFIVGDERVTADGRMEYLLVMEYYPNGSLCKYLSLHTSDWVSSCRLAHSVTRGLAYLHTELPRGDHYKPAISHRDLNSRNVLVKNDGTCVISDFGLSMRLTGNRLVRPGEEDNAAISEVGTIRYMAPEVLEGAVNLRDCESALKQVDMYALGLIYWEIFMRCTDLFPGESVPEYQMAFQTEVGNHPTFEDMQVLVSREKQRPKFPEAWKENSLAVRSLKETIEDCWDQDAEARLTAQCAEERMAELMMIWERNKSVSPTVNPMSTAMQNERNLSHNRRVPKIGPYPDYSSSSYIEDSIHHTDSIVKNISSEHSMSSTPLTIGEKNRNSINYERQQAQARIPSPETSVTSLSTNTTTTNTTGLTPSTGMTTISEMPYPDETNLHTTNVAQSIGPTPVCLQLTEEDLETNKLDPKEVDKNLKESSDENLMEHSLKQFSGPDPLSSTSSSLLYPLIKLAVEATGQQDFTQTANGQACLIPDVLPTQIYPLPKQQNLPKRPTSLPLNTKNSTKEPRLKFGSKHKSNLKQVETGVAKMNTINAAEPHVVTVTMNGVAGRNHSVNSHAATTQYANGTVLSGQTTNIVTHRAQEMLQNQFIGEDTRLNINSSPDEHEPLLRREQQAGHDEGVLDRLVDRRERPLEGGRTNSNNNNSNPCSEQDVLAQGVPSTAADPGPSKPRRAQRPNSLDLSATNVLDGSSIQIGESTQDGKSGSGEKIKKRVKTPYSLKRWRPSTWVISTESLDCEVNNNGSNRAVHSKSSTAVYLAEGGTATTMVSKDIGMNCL

[9] = target: Proto-oncogene tyrosine-protein kinase ROS (Homo sapiens) (UniProt P08922); experiment: Selectivity interaction (KinomeScan (DiscoverX)) EUB0001049a ROS1; details: at 1 µM
[10] = target: Misshapen-like kinase 1 (Homo sapiens, UniProt Q8N4C8); experiment: Selectivity interaction (Upstate Kinase Profiler service (Millipore)) EUB0000056c MINK1; details: at 1 µM
[11] = target: Serine/threonine-protein kinase WNK1 (Homo sapiens) (UniProt Q9H4A3); experiment: Selectivity interaction (ActivX KiNativ screen (ex vivo kinase selectivity in human PBMCs)) EUB0001619a WNK1; type: cell-based; details: PBMC, at 1 µM
[12] = target: Homeodomain-interacting protein kinase 2 (Homo sapiens, UniProt Q9H2X6); experiment: Selectivity interaction (KinomeScan (DiscoverX)) EUB0000618a HIPK2; details: at 10 µM
[13] = target: Casein kinase I isoform delta (Homo sapiens, UniProt P48730); experiment: Selectivity interaction (ActivX KiNativ screen (kinase selectivity in THP-1 cell lysates)) EUB0000639a CSNK1D; type: subcellular; details: lysate
[14] = target: T2, Ephrin type-B receptor 2 (Homo sapiens) (UniProt P29323); experiment: Selectivity interaction (Kinase panel (Invitrogen)) EUB0000639a EPHB2; details: at 200 nM
T2 sequence (whole entry): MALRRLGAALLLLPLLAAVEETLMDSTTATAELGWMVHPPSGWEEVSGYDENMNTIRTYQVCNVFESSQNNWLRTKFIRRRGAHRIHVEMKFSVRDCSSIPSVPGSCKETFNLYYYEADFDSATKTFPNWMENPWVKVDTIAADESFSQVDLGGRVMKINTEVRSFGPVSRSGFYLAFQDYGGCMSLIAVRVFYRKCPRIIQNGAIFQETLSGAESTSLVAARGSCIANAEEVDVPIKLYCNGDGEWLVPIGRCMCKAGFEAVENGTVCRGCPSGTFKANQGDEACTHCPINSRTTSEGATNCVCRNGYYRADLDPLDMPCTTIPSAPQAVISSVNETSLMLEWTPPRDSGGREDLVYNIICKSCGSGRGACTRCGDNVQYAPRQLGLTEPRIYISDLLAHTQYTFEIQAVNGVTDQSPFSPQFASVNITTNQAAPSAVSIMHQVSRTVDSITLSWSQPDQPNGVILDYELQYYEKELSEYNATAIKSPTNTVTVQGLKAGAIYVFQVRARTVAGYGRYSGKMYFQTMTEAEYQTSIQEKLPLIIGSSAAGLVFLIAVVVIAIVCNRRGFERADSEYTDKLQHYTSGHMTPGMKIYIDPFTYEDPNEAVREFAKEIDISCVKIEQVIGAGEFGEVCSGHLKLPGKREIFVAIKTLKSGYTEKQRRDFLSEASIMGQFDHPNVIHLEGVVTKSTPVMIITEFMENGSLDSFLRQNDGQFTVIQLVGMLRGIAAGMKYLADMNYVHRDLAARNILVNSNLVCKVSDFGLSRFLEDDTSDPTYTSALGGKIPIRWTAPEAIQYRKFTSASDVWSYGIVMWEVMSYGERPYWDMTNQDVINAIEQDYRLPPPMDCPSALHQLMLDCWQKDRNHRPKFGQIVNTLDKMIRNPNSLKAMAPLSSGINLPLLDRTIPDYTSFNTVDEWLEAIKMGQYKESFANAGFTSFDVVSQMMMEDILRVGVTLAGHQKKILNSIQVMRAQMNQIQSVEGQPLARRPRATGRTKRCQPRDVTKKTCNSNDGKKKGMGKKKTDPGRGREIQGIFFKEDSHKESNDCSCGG

[15] = target: Macrophage colony-stimulating factor 1 receptor (Homo sapiens) (UniProt P07333); experiment: Selectivity interaction (KinomeScan (DiscoverX)) EUB0000655a CSF1R; details: at 10 µM

Chain of Casein kinase I isoform delta (P48730 whole entry, looked up, canonical isoform): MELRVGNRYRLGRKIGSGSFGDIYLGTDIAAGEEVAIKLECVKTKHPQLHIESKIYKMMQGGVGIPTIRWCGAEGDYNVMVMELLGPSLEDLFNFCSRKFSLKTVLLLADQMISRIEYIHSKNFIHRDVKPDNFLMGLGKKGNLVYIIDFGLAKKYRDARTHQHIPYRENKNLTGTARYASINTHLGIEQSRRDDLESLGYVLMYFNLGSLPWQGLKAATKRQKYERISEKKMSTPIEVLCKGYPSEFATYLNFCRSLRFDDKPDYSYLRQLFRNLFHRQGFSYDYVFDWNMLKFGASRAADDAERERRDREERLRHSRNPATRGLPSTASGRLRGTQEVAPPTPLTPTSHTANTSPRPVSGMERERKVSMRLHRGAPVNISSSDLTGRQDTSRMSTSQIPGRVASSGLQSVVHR
Chain of Mast/stem cell growth factor receptor Kit (Homo sapiens), P10721 [V559D] (P10721 whole entry V559D): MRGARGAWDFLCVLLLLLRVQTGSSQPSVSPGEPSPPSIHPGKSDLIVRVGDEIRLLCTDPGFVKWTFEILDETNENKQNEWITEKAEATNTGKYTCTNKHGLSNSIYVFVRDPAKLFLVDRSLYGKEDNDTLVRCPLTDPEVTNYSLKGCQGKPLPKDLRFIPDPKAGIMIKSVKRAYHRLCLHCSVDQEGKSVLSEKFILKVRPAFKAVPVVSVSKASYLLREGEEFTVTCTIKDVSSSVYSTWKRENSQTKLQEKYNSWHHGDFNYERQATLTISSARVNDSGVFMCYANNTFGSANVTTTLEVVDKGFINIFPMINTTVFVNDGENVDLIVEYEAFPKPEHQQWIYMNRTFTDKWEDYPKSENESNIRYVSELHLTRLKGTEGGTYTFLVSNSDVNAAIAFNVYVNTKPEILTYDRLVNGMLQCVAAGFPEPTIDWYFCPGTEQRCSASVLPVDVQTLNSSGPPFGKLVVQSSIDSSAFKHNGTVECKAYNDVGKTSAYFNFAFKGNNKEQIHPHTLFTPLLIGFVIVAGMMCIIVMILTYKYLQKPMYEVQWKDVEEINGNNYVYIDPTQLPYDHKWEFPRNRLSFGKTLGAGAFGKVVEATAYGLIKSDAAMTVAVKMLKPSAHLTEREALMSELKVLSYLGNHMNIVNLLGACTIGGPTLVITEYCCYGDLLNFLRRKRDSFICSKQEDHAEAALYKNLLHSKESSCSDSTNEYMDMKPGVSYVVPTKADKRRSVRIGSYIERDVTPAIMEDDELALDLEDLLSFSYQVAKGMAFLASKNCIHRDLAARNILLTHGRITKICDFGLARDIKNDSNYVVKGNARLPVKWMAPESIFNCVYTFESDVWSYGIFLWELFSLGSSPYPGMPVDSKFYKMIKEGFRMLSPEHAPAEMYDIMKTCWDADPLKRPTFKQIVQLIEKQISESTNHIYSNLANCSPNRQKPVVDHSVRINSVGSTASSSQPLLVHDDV
Chain of Mast/stem cell growth factor receptor Kit (Homo sapiens), P10721 [D816H] (P10721 whole entry D816H): as the sequence (P10721 whole entry V559D) above, with D559V, D816H counted along it
Chain of Mast/stem cell growth factor receptor Kit (Homo sapiens), P10721 [V559D,V654A] (P10721 whole entry V559D/V654A): as the sequence (P10721 whole entry V559D) above, with V654A counted along it
Chain of Mast/stem cell growth factor receptor Kit (Homo sapiens), P10721 [V559D,T670I] (P10721 whole entry V559D/T670I): as the sequence (P10721 whole entry V559D) above, with T670I counted along it
Chain of Protein kinase C eta type (Homo sapiens) (P24723 whole entry): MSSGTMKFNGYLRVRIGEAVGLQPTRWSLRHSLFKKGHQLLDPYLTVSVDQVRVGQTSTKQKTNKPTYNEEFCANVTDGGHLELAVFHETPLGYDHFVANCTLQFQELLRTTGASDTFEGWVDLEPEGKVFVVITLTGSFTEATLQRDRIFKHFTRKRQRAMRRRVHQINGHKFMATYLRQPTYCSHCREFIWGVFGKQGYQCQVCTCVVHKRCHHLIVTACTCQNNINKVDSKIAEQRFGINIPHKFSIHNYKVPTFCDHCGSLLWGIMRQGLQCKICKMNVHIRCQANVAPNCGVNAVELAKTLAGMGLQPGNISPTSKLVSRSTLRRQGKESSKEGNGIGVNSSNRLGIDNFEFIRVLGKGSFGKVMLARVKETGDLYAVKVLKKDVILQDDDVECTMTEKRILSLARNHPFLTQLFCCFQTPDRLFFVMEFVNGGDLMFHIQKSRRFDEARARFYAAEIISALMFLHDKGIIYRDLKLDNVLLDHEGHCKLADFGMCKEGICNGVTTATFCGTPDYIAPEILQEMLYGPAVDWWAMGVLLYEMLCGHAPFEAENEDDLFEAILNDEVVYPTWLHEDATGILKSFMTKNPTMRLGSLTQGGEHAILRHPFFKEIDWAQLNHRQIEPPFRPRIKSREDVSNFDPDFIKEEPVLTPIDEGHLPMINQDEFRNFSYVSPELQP

For `COc1cc(N(C)c2ccnc3ccc(C(F)(F)F)cc23)cc(OC)c1OC`, the % binding [1] was 96%.
Work on `COCC(=O)NC/C=C/c1ccc2ncnc(Nc3ccc(Oc4ccc(C)nc4)c(C)c3)c2c1` [CP-724714] yielded a % of control [2] of 100%, a % of control [3] of 89% and a % of control [4] of 54%. For the same compound, the % of control [5] was 100%, the % of control [6] was 88% and the % of control [7] was 17%.
With `Cc1cc([C@@H](C)Nc2ccccc2C(=O)O)c2nc(N3CCOCC3)cc(=O)n2c1` [AZD-6482] the % of control [8] was 69%.
With `COc1cc(Nc2nc(C)cc(-c3cnn4nc(OC)ccc34)n2)cc(C(F)(F)F)c1` the % of control [9] was 91%.
For `Cc1ccc(-c2ccc3c(ccc4sc5c(c43)NC[C@@H](C)NC5=O)n2)cn1`, the % of inhibition [10] was 11%.
`N#Cc1cccc(-c2c[nH]c3ncnc(N4CCOCC4)c23)c1` was tested, and the % of inhibition [11] was -6%.
`O[C@H]1CC[C@H](Nc2ncc3nc(Nc4c(F)cc(F)cc4F)n([C@H]4CCOC4)c3n2)CC1` showed a % of control [12] of 86%.
`CC[C@@H]1[C@H](F)C(=O)N[C@@H]1COc1nccc2cc(C(N)=O)c(OC)cc12` [ZIMLOVISERTIB] was tested, and the % of inhibition ([13]; at 0.01 µM) was -6.6%, the % of inhibition ([13]; at 0.04 µM) was 20.3% and the % of inhibition ([13]; at 0.2 µM) was 53%. For the same compound, the % of inhibition ([13]; at 1 µM) was 77.8%, the % of inhibition ([13]; at 5 µM) was 94.8% and the % of inhibition [14] was 0.413%.
`CN(C)CCOc1ccc(-c2nc(-c3ccncc3)c(-c3ccc4c(c3)CC/C4=N\O)[nH]2)cc1` showed a % of control [15] of 86%.
